# Source: US12226381B2, “Composition of fused tricyclic gamma-amino acid derivatives and the preparation thereof” (SICHUAN HAISCO PHARMACEUTICAL CO., LTD., priority 2018, dated 2025)
# Test system: CCI molded SD rats
# Assay: Rat CCI-induced nociception sensitization model, mechanical pain threshold
# Assay type: in vivo
# Conditions: single oral administration; for mechanical pain threshold: FIGS. 2 and 3
# Description: 3. Rat CCI-Induced Nociception Sensitization Model
# SD rats of 160-180 g were purchased from Charles River (Beijing) with a license number of sCXK (Beijing)-2012-001 and a qualification number of 11400700254251. The surgery was performed to establish the CCI model as follows: the animals ware first anesthetized, then the left posterior sciatic nerve was exposed. A 2 mm long PE-90 catheter was applied to the middle site of the sciatic nerve. Finally the muscle and skin were sutured. Adaptation of the animal's left hind limb at 15g was carried out from day 10 after the surgery, three times a week.
# The baseline testing was performed 17 days after surgery (starting from 2g at the time of testing, with an upper limit of 8g and a lower limit of 1g which is the −24h point), with a pain threshold of 1-4g as a grouping criterion. Grouping was done according to baseline test results, with 10 animals per group. The animals in the group were fasted but given water overnight. On the second day, mechanical pain values were tested at 2 h, 4 h and 6 h after oral/intragastric administration. The test started at 8 g, with an upper limit of 15g and a lower limit of 1g.
# The data were processed according to equation (1) to calculate the PWT 50% value, where Xf is the log value of the final test fibers used in the test, k is a table value (Chaplan et al., 1994), and δ is the mean difference (here 0.224). PWT50%(g)=(10[Xf+kδ])/10000 [equation (1)]
# The data were expressed in a form of mean±standard deviation (X±s) and were statistically analyzed using one-way ANOVA and Dunnett's t test (Graphpad prism 6.01).
structure (smiles),measurement,value
NC[C@@]1(CC(=O)O)[C@@H]2CC[C@H]3C[C@@H]2[C@@H]1C3.O=S(=O)(O)c1ccccc1 [Compound 1],effective dose,3 mg/kg
same,mechanical pain threshold,significantly increased
CC(C)C[C@H](CN)CC(=O)O [pregabalin],effective dose,10 mg/kg
same,mechanical pain threshold,significantly increased
